Measurements taken from ChEMBL document CHEMBL1152712, “5-Hydroxyindole-type alkaloids, as Candida albicans isocitrate lyase inhibitors, from the tropical sponge Hyrtios sp” (Bioorg Med Chem Lett, 2009).
In brackets after ≈: the same amount, converted by molar mass.

What was measured:
[1] = test system: Candida albicans; assay: Antimicrobial activity against Candida albicans ATCC 10231; format: functional
[2] = target: Isocitrate lyase (Candida albicans, UniProt Q9P8Q7); assay: Inhibition of Candida albicans isocitrate lyase
Sequence of Isocitrate lyase (Q9P8Q7 whole entry): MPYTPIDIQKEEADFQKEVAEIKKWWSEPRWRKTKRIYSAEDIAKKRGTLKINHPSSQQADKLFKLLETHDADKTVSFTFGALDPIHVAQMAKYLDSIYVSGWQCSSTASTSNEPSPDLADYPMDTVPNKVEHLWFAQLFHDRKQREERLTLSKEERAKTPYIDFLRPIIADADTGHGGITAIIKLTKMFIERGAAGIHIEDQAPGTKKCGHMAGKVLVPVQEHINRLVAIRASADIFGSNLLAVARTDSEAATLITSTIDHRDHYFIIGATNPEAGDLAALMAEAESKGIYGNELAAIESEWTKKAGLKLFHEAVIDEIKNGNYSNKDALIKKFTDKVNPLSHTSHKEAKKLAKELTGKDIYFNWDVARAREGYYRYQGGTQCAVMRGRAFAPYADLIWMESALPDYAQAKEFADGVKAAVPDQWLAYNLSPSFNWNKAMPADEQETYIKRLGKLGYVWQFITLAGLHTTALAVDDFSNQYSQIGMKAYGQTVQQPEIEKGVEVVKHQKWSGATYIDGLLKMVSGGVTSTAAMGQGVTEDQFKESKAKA

Row | SMILES | MIC [1] [µM] | IC50 [2] [µM]
1 | O=C1NCCc2c1[nH]c1ccc(O)cc21 | > 989 | > 989
2 | O=C(O)CC[N+](=O)[O-] | > 1690 | –
3 | COC(=O)c1c[nH]c2ccc(O)cc12 | > 1050 | 800
4 | O=C(O)C1=NCCc2c1[nH]c1ccc(O)cc21 | > 869 | 380
5 | O=Cc1c[nH]c2ccc(O)cc12 | > 1020 | 247
6 | C[C@@H]1[C@H](O)[C@@H](C)/C=C/C=C/C=C/C=C/C=C/C=C/C=C/[C@H](O[C@@H]2O[C@H](C)[C@@H](O)[C@H](N)[C@@H]2O)C[C@@H]2O[C@](O)(C[C@@H](O)C[C@@H](O)[C@H](O)CC[C@@H](O)C[C@@H](O)CC(=O)O[C@H]1C)C[C@H](O)[C@H]2C(=O)O [AMPHOTERICIN B] | 1.7 (≈ 1.57 µg/mL) | –
7 | O=C(CO)c1c[nH]c2ccc(O)cc12 [HYRTIOSIN A] | > 1050 | 318
8 | O=C(C(=O)c1c[nH]c2ccc(O)cc12)c1c[nH]c2ccc(O)cc12 [HYRTIOSIN B] | > 624 | 89
9 | NCCc1c[nH]c2ccc(O)cc12 [SEROTONIN] | > 1130 | 301
